System: CD3+ T-cells pre-isolated from human peripheral blood
Assay: Gene expression panel of CD3+ T-cells treated with dmPGE2 (Affymetrix U133 plus 2.0 GeneChip)
Format: cell-based
Conditions: 10 μM dmPGE2, 2 hours at 37° C.; genes ATF3, CREM, GEM, CXCL2, MMP9, PLAUR, AREG, BCL2A1, DUSP4, FOS, FOSL2, JUN, MYC, NR4A2, NR4A3, SOCS1, SOCS3, ULBP2; mean of 3 donors; FIG. 1
Method: RNA was extracted from CD3+ T-cells pre-isolated from human peripheral blood (AllCells, Aiameda CA) (n=3 donors) post ex vivo treatment (2 hours at 37° C. in StemSpan-ACF (StemCell Technologies, Vancouver, Canada)) with 10 μM dmPGE2 (Fate therapeutics, San Diego, Calif.) or vehicle control (DMSO).
Following cell treatments, levels mRNA were quantitated from PicoPure isolated mRNA (Life Technologies, Carlsbad, Calif.) using Affymetrix GeneChip technology. Affymetrix U133 plus 2.0 GeneChip hybridization of all samples was performed in accordance with the manufacturer's recommendations (Affymetrix, Santa Clara, Calif.), involving roughly 200 ng of total RNA and Message Amp II (Life Technologies, Carlsbad, Calif.) standard two round amplification protocols. Probe intensities were normalized according to a log scale robust multi-array analysis (RMA) method (Affymetrix Santa Clara, Calif.). A parametric paired t-test (Benjamini-Hochberg false discovery rate <0.05, adjusted p-value/q-value <0.05, and fold change > or <2 fold) detected probes with significant changes due to the treatment with dmPGE2 and dexamethasone.
The probe intensities were converted into linear fold changes of relative expression levels of mRNA by comparison of dmPGE2 and dexamethasone treated CD3+ T-cells in comparison to the vehicle treated control samples. […]

CCCCC(C)(C)[C@H](O)/C=C/[C@H]1[C@H](O)CC(=O)[C@@H]1C/C=C\CCCC(=O)O [dmPGE2, 16,16-dimethyl PGE2]
statistically significant increase in expression (linear fold change of mRNA vs vehicle control): at least 2 fold
